Laboratory results: patent US20090186810A1, “POTASSIUM CHANNEL MODULATORS AND PLATELET PROCOAGULANT ACTIVITY” (priority 2006, published 2009)
“Also recorded” adds a separate entry of the source. Like-named read-outs stand apart in the source and are kept apart here.

Tests used:
Type in all cases: cell-based, human
[1] = test system: platelets from a patient with Scott syndrome; test: Prothrombinase activity of platelets from a patient with Scott syndrome; conditions: valinomycin 3 μmol/L; collagen plus thrombin stimulation; FIG. 5
Protocol: For experiments with platelets from a patient with Scott syndrome, freshly obtained citrated blood from the patient and a control was shipped by airmail and platelets were isolated and used for experiments immediately upon arrival (approx 24 hours after blood donation).
(§1) Platelet procoagulant activity was assayed as described in more detail elsewhere.^9 Briefly, after activation of 10^7 platelets/mL with collagen (10 μg/mL) and thrombin (4 nmol/L) for 10 minutes, samples were taken and diluted to 10^6 platelets/mL in HEPES buffer containing 3 mmol/L CaCl2 and 0.5 mg/mL BSA. The samples were incubated with 0.2 nmol/L factor Xa and 2 nmol/L factor Va for 1 minute at 37° C. Thrombin formation was initiated by addition of 1 μmol/L prothrombin and arrested after 2 minutes by addition of 10 mmol/L EDTA. Thrombin was measured using the chromogenic substrate S2238.
In FIG. 5, the effect of valinomycin on collagen plus thrombin induced procoagulant activity of platelets from a patient with Scott syndrome is shown. Prothrombinase activities, expressed as nmol/L thrombin formed per minute, were determined after activation with collagen (10 μg/ml) plus thrombin (4 nmol/L) in the absence (black bars) and presence (hatched bars) of valinomycin (3 μmol/L). Data are mean values±1 S.D. (n=6).

[2] = test system: collagen and thrombin activated platelets; test: cells
Protocol: (§2) Platelet isolation was performed as described.^10 Briefly, 10 milliliters (mL) blood was collected in 2 mL anticoagulant ACD (80 mmol/L trisodium citrate, 52 mmol/L citric acid and 180 mmol/L glucose). Platelet rich plasma was obtained by centrifuging whole blood for 15 minutes at 200 g. Platelets were spun down at 11,500× gravity for 2 minutes using a microfuge. The platelet pellet was resuspended and washed twice with 10 mmol/L HEPES, 137 mmol/L NaCl, 2.7 mmol/L KCl, 2 mmol/L MgCl2, 5 mmol/L glucose and 0.5 mg/mL BSA, adjusted at pH 6.6); before each centrifugation step, 100 μL ACD was added to each mL resuspended platelets. Finally, platelets were resuspended in HEPES buffer at pH 7.4. Platelet count was adjusted at 2×10^8 platelets/mL. For measurement of the intracellular Ca^2+ concentration ([Ca^2+]i), platelets were loaded with Fura-2 (3 μmol/L) during 45 minutes at 37° C., prior to isolation.
Platelet activation was performed at 37° C. at a concentration of 10^7 platelets/mL in a volume of 0.5 mL under continuous stirring in the presence of 3 mmol/L CaCl2. Platelet agonists used were thrombin (5 nmol/L) plus collagen (10 μg/mL) or ionomycin (1 μmol/L). The effect of different inhibitors was studied by pre-treatment of platelets with the various agents for 30 minutes before starting the activation procedure. For the effects of high extracellular [K^+], platelet suspensions were diluted 20-fold to a concentration of […] in a modified HEPES buffer, referred to as HEPES/KCl buffer (10 mmol/L HEPES, 19.7 mmol/L NaCl, 120 mmol/L KCl, 2 mmol/L MgCl2, 5 mmol/L glucose and 0.5 mg/mL BSA, pH 7.4), activated and assayed for thrombin generation as described before. In some experiments, HEPES buffer was used in which 120 mmol/L NaCl was replaced by 120 mmol/L choline chloride (10 mmol/L HEPES, 17 mmol/L NaCl, 120 mmol/L choline chloride, 2.7 mmol/L KCl, 2 mmol/L MgCl2, 5 mmol/L glucose and 0.5 mg/mL BSA, pH 7.4), referred to as HEPES/Choline buffer.
as §1
FIG. 2. illustrates the effect of potassium channel inhibitors on collagen plus thrombin induced platelet procoagulant activity. Platelets at 10^7 ml^−1 were preincubated with various inhibitors for 30 minutes followed by activation with collagen (10 μg/ml) plus thrombin (4 nmol/L) for 10 minutes. Samples from these incubations were diluted 10-fold in HEPES buffer containing 3 mmol/L CaCl2 and subsequently analyzed for prothrombinase activity (A) or percentage of annexin-positive cells (B) as described in the Materials and Methods section above. Valinomycin was added 5 minutes prior to activation of the platelets (to avoid long term effects of this ionophore). Black bars: absence of valinomycin; hatched bars: presence of valinomycin. […] Student's t-test was used to compare data in the presence and absence of valinomycin.

[3] = test system: collagen plus thrombin activated platelets; test: Measurement of [Ca2+]i of Fura-2-loaded platelets in suspension
Protocol: as §2
Platelets (5×10^7/mL) were incubated with K^+ channel inhibitors for 5 minutes, followed by the addition of tirofiban (5 μg/mL) and Ca^2+ (3 mmol/L) and incubated for an additional 5 minutes under stirring conditions. Collagen (10 μg/mL) plus thrombin (5 nmol/L) were then added simultaneously. Changes in [Ca^2+]i of Fura-2-loaded platelets were measured under continuous stirring by dual excitation fluorometry in an SLM-Aminco 8100 spectrofluorimeter (SLM Instruments). Ratio values of fluorescence at 340 and 380 nm excitation, obtained 5 minutes after activation with collagen plus thrombin, were converted to levels of [Ca^2+]i as described.^14 Experiments were performed in triplicate at 37° C.

[4] = test system: collagen plus thrombin activated platelets; test: Flow cytometry, binding of FITC-conjugated annexin A5 (PS exposure)
Protocol: as §2
Platelet activation was performed at 37° C. at a concentration of 10^7 platelets/mL in a volume of 0.5 mL under continuous stirring in the presence of 3 mmol/L CaCl2. Platelet agonists used were thrombin (5 nmol/L) plus collagen (10 μg/mL) or ionomycin (1 μmol/L). […]
Samples for flow cytometry were taken simultaneously with samples for the prothrombinase assay from the platelet incubations after 10 minutes activation. To measure PS exposure, samples were diluted 10-fold in HEPES buffer containing 3 mmol/L CaCl2 and incubated with FITC-conjugated Annexin A5 (final concentration 10 nmol/L) for 5 minutes and analyzed for light scatter and fluorescence by a Coulter Epics XL-MLC™ flow cytometer. Light scatter and fluorescence channels were set at logarithmic gain. Scatter parameters and fluorescence intensities were obtained from 10,000 platelets and analyzed off-line using WinMDI version 2.8 software (http://facs.scripps.edu/software.html). Ionomycin activated platelets were used to set a marker for fluorescence intensity of annexin-positive platelets to measure the percentage of annexin-positive platelets after the various incubation procedures. […]

[5] = test system: platelets, collagen plus thrombin induced aggregation; test: Platelet aggregation (Chronolog aggregometer)
Protocol: (§3) Aggregation was measured at 37° C. in 450 μL samples of a platelet suspension of 2×10^8/mL using an automated model 400 Chronolog aggregometer (Chronolog Corporation, Chicago, USA). After stirring for 2 minutes at 300 rpm, CaCl2 (3 mmol/L) was added, 1 minute later followed by simultaneous addition of 10 μg/mL collagen and 4 nmol/L thrombin. The resulting aggregation was recorded for 5 minutes after which 50 μL ATP-reagent (Boehringer Mannheim ATP Bioluminescence Assay Kit HS II) was added to quantify the release reaction.

[6] = test system: platelets, tetracaine-induced PS exposure; test: Tetracaine-induced binding of FITC-conjugated annexin A5
[7] = test system: platelets, tetracaine-induced PS exposure; test: Tetracaine-induced prothrombinase activity
[8] = test system: platelets, collagen plus thrombin induced release of ATP; test: Platelet release reaction (ATP bioluminescence)
Protocol: as §3

[9] = collagen 10 μg/mL plus thrombin 4 nmol/L, concentration as given in row

CC(C)[C@@H]1NC(=O)[C@H](C)OC(=O)[C@@H](C(C)C)NC(=O)[C@@H](C(C)C)OC(=O)[C@H](C(C)C)NC(=O)[C@H](C)OC(=O)[C@@H](C(C)C)NC(=O)[C@@H](C(C)C)OC(=O)[C@H](C(C)C)NC(=O)[C@H](C)OC(=O)[C@@H](C(C)C)NC(=O)[C@@H](C(C)C)OC1=O [valinomycin]
procoagulant response (prothrombinase activity) of Scott syndrome platelets, in words [1]: significant increase; also recorded: partially restored | reversal of the inhibition of the procoagulant response by high extracellular [K+] ([2]; addition of valinomycin, data not shown): not reversed | reversal of the inhibitory effect of quinine on procoagulant response ([2]; valinomycin 3 μmol/L, HEPES buffer, FIGS. 2A and B): partially abolished | reversal of the inhibition of procoagulant response caused by clotrimazol and charybdotoxin ([2]; valinomycin 3 μmol/L, HEPES buffer, FIGS. 2A and B (prothrombinase and annexin)): completely reversed | procoagulant response of platelets in the absence of a stimulus ([2]; valinomycin itself): did not cause a procoagulant response | Δ[Ca2+]i with valinomycin in clotrimazol-preincubated platelets ([3]; clotrimazol 10 μmol/L plus valinomycin, 5 minutes after collagen plus thrombin): 326 ± 34 nmol/L | reversal of the inhibition by clotrimazol and charybdotoxin in HEPES/Choline ([4]; presence of valinomycin, HEPES/Choline buffer, annexin A5 binding, FIG. 4): virtually annihilated

Clc1ccccc1C(c1ccccc1)(c1ccccc1)n1ccnc1 [clotrimazol, 1-[(2-chlorophenyl)diphenylmethyl]-1H-imidazole]
Aggregation % of control (±S.D.) [5]: 90.0 ± 2.8 % of control | effect on aggregation or release, in words ([5]; collagen plus thrombin induced, aggregation and ATP release together): Neither high extracellular [K^+], nor the presence of clotrimazol or charybdotoxin showed an appreciable effect | inhibition of tetracaine-induced binding of FITC-conjugated annexin A5 [6]: neither clotrimazol nor charybdotoxin could inhibit | inhibition at 10 µM ([2]; Homo sapiens, Platelet, read-out: inhibition of the prothrombinase activity of collagen and thrombin activated platelets): 46 ± 13% | inhibition of tetracaine-induced prothrombinase activity [7]: neither clotrimazol nor charybdotoxin could inhibit | Δ[Ca2+]i ([3]; 5 minutes after stimulation with collagen plus thrombin, clotrimazol 10 μmol/L, charybdotoxin 20 nmol/L, control 364±18): 275 ± 10 nmol/L | reduction of the increase in [Ca2+]i versus absence of inhibitors ([3]; clotrimazol 10 μmol/L): 24% | extent of annexin binding (mean fluorescence intensity) of the residual PS positive platelets [4]: remains at the same level | number of PS-exposing (annexin-positive) platelets [4]: decreased | Release (ATP) % of control (±S.D.) [8]: 91.3 ± 5.0 % of control

C=C[C@H]1CN2CC[C@H]1C[C@H]2[C@H](O)c1ccnc2ccc(OC)cc12.Cl [quinine, quinine hydrochloride]
Aggregation % of control (±S.D.) [5, 9]: 40.0 ± 3.0 % of control | inhibition of the aggregation ([5]; collagen plus thrombin induced): approximately 60% | Release (ATP) % of control (±S.D.) [8, 9]: 90.1 ± 4.1 % of control | effect on the release, in words ([8]; collagen plus thrombin induced): only a minor effect

iberiotoxin (QFTDVDCSVSKECWSVCKDLFGVDRGKCMGKKCRCYQ; UniProt P24663 1-37, looked up)
effect on collagen plus thrombin-induced procoagulant (prothrombinase) activity, in words ([2]; iberiotoxin 200 nmol/L, apamin 500 nmol/L): without effect
